The subject of series [1] is rats with collagen-induced arthritis. Put plainly: Anti-inflammatory effect on rats with collagen-induced arthritis. Conditions: for decreased percentage of edema: IP. It counts as in vivo, rat. The text has this:
SD rats of SPF grade were supplied from BioLasco. Prior to performing the study, the animals were accommodated for 4 days after being received. Weighing, blood sampling, measuring the paw volumes and other related records for each animal were established. The rats were immunized and boosted with bovine collagen II-EFA (Incomplete Freund's Adjuvant, from Sigma) to induce arthritis (CIA). The CIA rats were grouped into 6 groups and daily injected with the drug candidates (myricitrin and quercetin-3-D-glucoside respectively). Dexamethasone (0.2 mg) was used as a positive control and 5% ethanol as a negative control. Treatment period was 7 days. Body weight and paw volumes were measured and blood sampling were collected at day 0, 3, 6, 10 and 14.
Six days after the final dosing, all the animals were sacrificed. The affected hind limbs were removed for histological assessment. The parameters of body weights and paw volumes were measured and compared for before, during and after treatment with drug candidates.

The target in a further series is T1, TNFα (Homo sapiens, UniProt P01375).
T1 construct: purchased
T1 sequence (P01375 77-233 limits assumed, species assumed): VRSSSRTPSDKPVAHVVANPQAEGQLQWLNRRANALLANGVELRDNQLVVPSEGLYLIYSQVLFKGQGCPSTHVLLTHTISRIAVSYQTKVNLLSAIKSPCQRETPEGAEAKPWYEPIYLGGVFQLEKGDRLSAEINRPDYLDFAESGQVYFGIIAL
Put plainly: L929 cell proliferation/cytotoxicity assay, TNFα activity assay. Type of series: cell-based. The method, then: (§1) L929 cells were cultured in Eagle's Minimal Essential Medium (MEM) containing 10% equine serum, 1% P/S and 1% non-essential amino acid. Confluent L929 cells were washed with 2 ml PBS (phosphate-buffered saline) solution and then trypsinized with 1 ml 1×trypsin, followed by resuspending in complete medium. Two hundred microliter of cell suspension was aspirated for cell density counting. […]. Add 100 μl of cell suspension to each well in 96-well flat-bottomed microtitre plates and incubated for 24 hrs in 5% CO2 atmosphere at 37° C. incubator.
Crude herbal extracts were resuspended in 1×PBS and sterilized with 0.22 μm filters. Varying concentrations of herbal extract were incubated for 1 hr with equal volume of commercial TNFα 0.2 ng/ml. Before the end of the 1 hr pre-incubation, removing the medium from the 24 hr incubated 96-well plate, and added a 50 μl fresh medium containing 4 μg/ml of Actinomycin D into the 96-well plate. Transferred the 50 μl of pre-incubated mixture of herbal extraction and TNFα to the 96-well plate with the medium containing Act D to give the final concentration of Act D (2 μg/ml), TNFα(0.1 ng/ml). […]
The same samples as those for TNFα activity assay were added to the 96-well plate with the medium containing Act D to give the final concentration of Act D 2 μg/ml. […] Read with ELISA (enzyme-linked immunosorbent assay) reader at O.D (optical density) 490/630 nm. […]

The next series deals with L929 cells. Put plainly: Cytotoxicity in L929 cells (XTT). It counts as cell-based. Conditions: Act D 2 μg/ml, 24 hrs. As for the experimental part:
as §1
The same samples as those for TNFα activity assay were added to the 96-well plate with the medium containing Act D to give the final concentration of Act D 2 μg/ml. Mixed well by gently shaking and then incubated for 24 hrs in 5% CO2 atmosphere at 37° C. incubator. 50 μl XTT mixture (XTT−1: XTT−2=50:1) was added to each well, and incubated in a CO2 incubator for 4 hrs. Read with ELISA (enzyme-linked immunosorbent assay) reader at O.D (optical density) 490/630 nm. […]. Quercitrin and Myricitrin Identification (1) Thin-Layer Chromatography
A general note: Tetrazolium assays rely on reduction of a dye to a coloured formazan, in cell work by metabolically active cells.

[2] abbreviates: CIA rats, 3rd day after treatment stopped (T4).
Setting [3] is: CIA rats, 7th day after treatment stopped (T5).

For `C[C@@H]1C[C@H]2[C@@H]3CCC4=CC(=O)C=C[C@]4(C)[C@@]3(F)[C@@H](O)C[C@]2(C)[C@@]1(O)C(=O)CO` [dexamethasone, reference compound], the “decreased percentage of edema” value in series [1] (setting [2]) is recorded as 28.21%; in series [1] (setting [3]) it was 29.97%.
On to `O=c1c(O[C@@H]2O[C@H](CO)[C@@H](O)[C@H](O)[C@H]2O)c(-c2ccc(O)c(O)c2)oc2cc(O)cc(O)c12` [quercetin-3-D-glucoside], for which, in series [1] (CIA rats treated (IP), hind limbs removed six days after final dosing), the “histopathological changes of joint” value is “proliferation of synovial ling cell and infiltration of lymphocytes was shown”. In addition, the “decreased percentage of edema” value stood at 24.93% in series [1] (setting [2]) and 80.47% in series [1] (setting [3]). The “decreased percentage of edema volumes for hind paws” value in series [1] (CIA rats, daily injection (IP), treatment period / day 6 of treatment (T3), vs non-treatment paw volume) amounted to 8.59%. Besides, the IC50 (commonly the concentration that gives 50% inhibition) against TNFα worked out at 95.7 µM.
For `C[C@@H]1O[C@@H](Oc2c(-c3ccc(O)c(O)c3)oc3cc(O)cc(O)c3c2=O)[C@H](O)[C@H](O)[C@H]1O` [quercitrin], the IC50 against TNFα is 161 µM. The cell cytotoxicity entry with L929 cells was “without cell cytotoxicity”.

The record behind these values is patent US20060105967A1, “Flavone derivatives as TNFalpha inhibitors or antagonists” (Advanced Gene Technology, Corp., priority 2004, published 2006).
